Assay results reported in ChEMBL document CHEMBL6134916, “Novel Substituted Cyclic Compounds as SLC6A19 Inhibitors for Treating Phenylketonuria and Other Amino Acidurias” (ACS Med Chem Lett, 2025).

These molecules were tested against T1, Sodium-dependent neutral amino acid transporter B(0)AT1 (Homo sapiens, UniProt Q695T7) (assay: Inhibition of human SLC6A19 expressed in MDCK cells co-expressing human TMEM27 using 13C6/15N-L-Isoleucine as substrate preincubated for 20 mins followed by substrate addition and measured after 20 mins by stable isotope uptake assay).
T1 sequence (Q695T7 whole entry): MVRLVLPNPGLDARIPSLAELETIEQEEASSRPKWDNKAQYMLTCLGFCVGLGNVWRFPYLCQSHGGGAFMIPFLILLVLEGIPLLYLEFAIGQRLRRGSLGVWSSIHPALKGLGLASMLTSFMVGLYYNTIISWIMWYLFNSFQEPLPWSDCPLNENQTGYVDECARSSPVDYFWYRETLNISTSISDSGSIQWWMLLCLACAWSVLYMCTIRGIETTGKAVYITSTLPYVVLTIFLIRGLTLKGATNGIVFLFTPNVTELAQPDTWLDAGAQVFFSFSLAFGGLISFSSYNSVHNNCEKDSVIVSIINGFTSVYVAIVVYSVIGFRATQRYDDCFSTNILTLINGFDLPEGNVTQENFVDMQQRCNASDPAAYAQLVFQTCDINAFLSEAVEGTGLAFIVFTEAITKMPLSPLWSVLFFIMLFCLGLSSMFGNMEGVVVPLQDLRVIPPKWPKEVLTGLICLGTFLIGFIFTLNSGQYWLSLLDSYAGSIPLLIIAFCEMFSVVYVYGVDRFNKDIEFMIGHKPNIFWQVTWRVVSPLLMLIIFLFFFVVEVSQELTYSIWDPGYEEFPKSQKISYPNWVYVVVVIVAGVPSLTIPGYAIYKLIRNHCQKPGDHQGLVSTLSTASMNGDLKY
Assay type: cell-based

IC50	Structure (SMILES)
5 nM	CNC(=O)c1cc2c(-c3ccc(C(=O)NCc4cccc(C(F)(F)F)c4)cc3)cc(C)c(F)c2[nH]1
4 nM	CNC(=O)c1cc2c(-c3ccc(C(=O)NCc4cc(C(F)(F)F)ccc4F)cc3F)cccc2[nH]1
5 nM	CNC(=O)c1cc2c(-c3ccc(C(=O)NCc4cccc(C(F)(F)F)c4)cc3)cc(C(C)C)cc2[nH]1
5 nM	CNC(=O)c1cc2c(-c3ccc(C(=O)NCc4cccc(C(F)(F)F)c4)cc3)c(OC)ccc2[nH]1
4 nM	CNC(=O)c1cc2c(-c3ccc(C(=O)NCc4cccc(C(F)(F)F)c4)cc3)ccc(F)c2[nH]1
3 nM	CNC(=O)c1cc2c(-c3ccc(C(=O)NCc4cccc(C(F)(F)F)c4)cc3Cl)cccc2[nH]1
